The record followed here is ChEMBL document CHEMBL1201862, “PubChem BioAssay data set” (2004).

Molecules are shown by their SMILES.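 Compound exposure: 48 hours, 5 concentrations, 96-well plates. GI50 = concentration required for 50% inhibition of growth.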 Activity calls are given as the source filed them. Cut-off read from the data, not from the text of the source: active = GI50 up to about 1.1 µM and inactive = higher. Bounds are passed on as bounds.

Some test systems named below: CAKI-1; SK-MEL-28; HCC 2998; MCF7; OVCAR-3; ACHN; HL-60; UACC-62; T47D; IGROV-1; KM12; NCI-H460; SK-OV-3; PC-3; OVCAR-4; SK-MEL-5; RXF 393; SF-539; HCT-15; TK-10.
Holding throughout (test): inhibition of tumour cell growth, NCI panel, 48 h

In the case of `CC[C@@]1(O)C(=O)OCc2c1c(Cl)c1n(c2=O)Cc2cc3ccccc3nc2-1`, the GI50 with CAKI-1 was 0.736 µM (active); in the experiment on SK-MEL-28, 10.4 µM (inactive); in the experiment on HCC 2998, 3.4 µM (inactive); with MCF7, 0.708 µM (active); in the experiment with OVCAR-3, 6.35 µM (inactive); in the experiment with ACHN, 1.16 µM (inactive). In addition, the GI50 with HL-60 was 2.19 µM (inactive); with UACC-62, 0.528 µM (active); with T47D it was 1.31 µM (inactive); with IGROV-1, 4.08 µM (inactive); in the experiment with KM12, 6.38 µM (inactive); in the experiment with NCI-H460, 0.383 µM (active). For the same compound, the GI50 in the experiment with SK-OV-3 was 4.24 µM (inactive); in the experiment with PC-3, 4.93 µM (inactive); with OVCAR-4, 8.97 µM (inactive); with SK-MEL-5, 1.75 µM (inactive); in the experiment with RXF 393, 2.52 µM (inactive); with SF-539 it was 2.08 µM (inactive). Also, the GI50 in the experiment with HCT-15 was 7.98 µM; in the experiment on TK-10, 19 µM (inactive).

With `Cc1cc(C)c2nccc(NCCCN(C)C)c2c1[N+](=O)[O-]`, the GI50 is 32.2 µM (inactive) with CAKI-1; 19.6 µM (inactive) in the experiment on SK-MEL-28; 22.8 µM (inactive) with HCC 2998; 30.5 µM (inactive) with MCF7; 35.5 µM (inactive) with OVCAR-3; 34.9 µM (inactive) with ACHN. The GI50 with HL-60 was 25.9 µM (inactive); with UACC-62 it was 34.1 µM (inactive); with T47D, 33.3 µM (inactive); with IGROV-1, 19.6 µM (inactive); in the experiment with KM12, 31.4 µM (inactive); in the experiment with NCI-H460, 26.8 µM (inactive). The GI50 in the experiment on SK-OV-3 was > 100 µM (inactive); in the experiment on PC-3 it was 20.6 µM (inactive); in the experiment with OVCAR-4, 13.8 µM (inactive); in the experiment with SK-MEL-5 it was 13.5 µM (inactive); with RXF 393, 19.5 µM (inactive); with SF-539, 34.9 µM (inactive). Moreover, the GI50 is 15 µM in the experiment on HCT-15 and 30.8 µM (inactive) in the experiment on TK-10.

On to `COc1ccc2c(c1)c1c3c(ccc4ncn2c43)N(CCO)CCN=1`, for which the GI50 was 0.247 µM (active) with CAKI-1; 0.327 µM (active) in the experiment with SK-MEL-28; 0.147 µM (active) in the experiment on HCC 2998; 0.189 µM (active) in the experiment with MCF7; 0.213 µM (active) in the experiment on OVCAR-3; 0.146 µM (active) in the experiment with ACHN. Also, the GI50 in the experiment with HL-60 is 0.165 µM (active); in the experiment on UACC-62, 0.216 µM (active); in the experiment with T47D, 0.263 µM (active); in the experiment on IGROV-1, 2.02 µM (inactive); in the experiment on KM12, 0.26 µM (active); in the experiment on NCI-H460, 0.132 µM (active). Also, the GI50 in the experiment on SK-OV-3 was 0.305 µM (active); in the experiment on PC-3, 0.148 µM (active); with OVCAR-4 it was 0.221 µM (active); in the experiment on SK-MEL-5, 0.188 µM (active); in the experiment on RXF 393 it was 0.211 µM (active); with SF-539 it was 0.0893 µM (active). In addition, the GI50 with HCT-15 is 0.195 µM; with TK-10 it was 0.389 µM (active).

On to `COc1ccc2c(c1)Cc1cc(/N=[N+](\[O-])c3ccc4c(c3)Cc3cc(OC)ccc3-4)ccc1-2`, for which the GI50 with CAKI-1 is 36.2 µM (inactive); in the experiment with SK-MEL-28 it was 75.2 µM (inactive); with HCC 2998, 14.2 µM (inactive); in the experiment on MCF7, 19.7 µM (inactive); with OVCAR-3, 48.8 µM (inactive); with ACHN it was 37.2 µM (inactive). The GI50 is 7.48 µM (inactive) with HL-60; 24.5 µM (inactive) with UACC-62; 38.5 µM (inactive) with T47D; 24 µM (inactive) in the experiment with IGROV-1; 29.4 µM (inactive) in the experiment on KM12; 39.3 µM (inactive) with NCI-H460. The GI50 is > 100 µM (inactive) in the experiment with SK-OV-3; 35.9 µM (inactive) with PC-3; 40 µM (inactive) with OVCAR-4; 18.1 µM (inactive) with SK-MEL-5; 57.7 µM (inactive) in the experiment on RXF 393; 10.2 µM (inactive) with SF-539. Moreover, the GI50 was 95.7 µM in the experiment on HCT-15 and 64.3 µM (inactive) in the experiment on TK-10.

Consider `C=C(CC[C@@H](C)[C@H]1CC[C@H]2[C@@H]3C[C@@H](O)[C@H]4C[C@@H](O)CC[C@]4(CO)[C@H]3CC[C@]12C)C(C)C`, for which the GI50 in the experiment on CAKI-1 was 5.64 µM (inactive); in the experiment with SK-MEL-28, 4.1 µM (inactive); in the experiment with HCC 2998, 0.382 µM (active); with MCF7, 2.67 µM (inactive); in the experiment on OVCAR-3, 2.52 µM (inactive); in the experiment on ACHN it was 5.81 µM (inactive). For the same compound, the GI50 with HL-60 was 6.34 µM (inactive); with UACC-62, 8.15 µM (inactive); in the experiment with T47D, 1.79 µM (inactive); with IGROV-1, 5.18 µM (inactive); in the experiment on KM12 it was 2.09 µM (inactive); with NCI-H460, 2.18 µM (inactive). In addition, the GI50 was 9.1 µM (inactive) in the experiment on SK-OV-3; 4.94 µM (inactive) in the experiment with PC-3; 6.84 µM (inactive) with OVCAR-4; 8.79 µM (inactive) in the experiment on SK-MEL-5; 3.32 µM (inactive) in the experiment with RXF 393; 9.75 µM (inactive) with SF-539. Moreover, the values for the GI50 in the experiment with HCT-15 and in the experiment with TK-10 were 2.83 µM and 2.37 µM (inactive), respectively.

On to `CCN(CC)CCOc1ccccc1/C=C/c1noc2ccccc12`, for which the GI50 with CAKI-1 is 12.8 µM (inactive); in the experiment on SK-MEL-28, 7.73 µM (inactive); in the experiment with HCC 2998, 5.79 µM (inactive); with MCF7, 14.2 µM (inactive); with OVCAR-3 it was 14.7 µM (inactive); in the experiment on ACHN, 12.7 µM (inactive). Further, the GI50 in the experiment on HL-60 was 7.76 µM (inactive); in the experiment with UACC-62, 10.6 µM (inactive); in the experiment with T47D it was 12.6 µM (inactive); in the experiment on IGROV-1, 9.91 µM (inactive); in the experiment on KM12, 16.4 µM (inactive); in the experiment with NCI-H460, 11.6 µM (inactive). Also, the GI50 is 20 µM (inactive) with SK-OV-3; 4.89 µM (inactive) with PC-3; 24.5 µM (inactive) in the experiment with OVCAR-4; 3.79 µM (inactive) with SK-MEL-5; 2.75 µM (inactive) in the experiment on RXF 393; 16 µM (inactive) in the experiment with SF-539. Further, the GI50 was 10.5 µM in the experiment with HCT-15 and 15 µM (inactive) in the experiment with TK-10.

Consider `COC(=O)[C@]1(c2cc3ccccc3[nH]2)CC2CNC1C1OC(C)(C)OC21` (some centres undefined), for which the GI50 in the experiment with CAKI-1, in the experiment on SK-MEL-28, in the experiment on HCC 2998, with MCF7, with OVCAR-3 and in the experiment on ACHN was > 100 µM (inactive) throughout. The GI50 in the experiment with HL-60 is > 100 µM (inactive); in the experiment on UACC-62, > 100 µM (inactive); in the experiment on T47D, 52.4 µM (inactive); in the experiment with IGROV-1, > 100 µM (inactive); in the experiment on KM12, > 100 µM (inactive); with NCI-H460, > 100 µM (inactive). Moreover, the GI50 is > 100 µM (inactive) in the experiment on SK-OV-3; > 100 µM (inactive) in the experiment on PC-3; > 100 µM (inactive) with OVCAR-4; > 100 µM (inactive) in the experiment with SK-MEL-5; 60.1 µM (inactive) in the experiment with RXF 393; > 100 µM (inactive) in the experiment with SF-539. The GI50 with HCT-15 was over 100 µM; in the experiment with TK-10 it was > 100 µM (inactive).

`NC(Cc1ccccc1)C(=O)NC(Cc1ccccc1)NC(=O)C(Cc1c[nH]c2ccccc12)C(=O)O` (centres undefined): the GI50 in the experiment with CAKI-1, with SK-MEL-28, in the experiment with HCC 2998, in the experiment on MCF7, in the experiment with OVCAR-3 and in the experiment with ACHN was > 100 µM (inactive) each time. The GI50 with HL-60, with UACC-62, in the experiment with T47D, in the experiment with IGROV-1, in the experiment on KM12 and in the experiment with NCI-H460 was > 100 µM (inactive) each time. Moreover, the GI50 in the experiment on SK-OV-3 was > 100 µM (inactive); in the experiment on PC-3, > 100 µM (inactive); with OVCAR-4, > 100 µM (inactive); in the experiment with SK-MEL-5, 12 µM (inactive); in the experiment with RXF 393, > 100 µM (inactive); in the experiment with SF-539, > 100 µM (inactive). Besides, the results for the GI50 in the experiment on HCT-15 and in the experiment with TK-10 were over 100 µM and > 100 µM (inactive), respectively.

Turning to `N#CC(C#N)=C/C=C/c1ccccc1[N+](=O)[O-]`, the GI50 in the experiment on CAKI-1 is 5.04 µM (inactive); with SK-MEL-28, 2.11 µM (inactive); in the experiment on HCC 2998, > 10 µM (inactive); in the experiment on MCF7 it was 3.95 µM (inactive); with OVCAR-3 it was 4.98 µM (inactive); with ACHN it was 4.26 µM (inactive). The GI50 with HL-60 was 6.05 µM (inactive); with UACC-62, 3 µM (inactive); with T47D it was > 10 µM (inactive); with IGROV-1, > 10 µM (inactive); in the experiment on KM12 it was 5.02 µM (inactive); in the experiment with NCI-H460, 9.57 µM (inactive). Moreover, the GI50 is > 10 µM (inactive) in the experiment on SK-OV-3; 5.06 µM (inactive) in the experiment on PC-3; 6 µM (inactive) in the experiment with OVCAR-4; 3.74 µM (inactive) in the experiment on SK-MEL-5; 2.31 µM (inactive) in the experiment with RXF 393; 6.76 µM (inactive) in the experiment on SF-539. Besides, the GI50 was 7.08 µM in the experiment with HCT-15 and > 10 µM (inactive) in the experiment with TK-10.

Take `CN1c2ccccc2C(=O)Nc2cnc(Cl)nc21`: the GI50 in the experiment on CAKI-1, in the experiment with SK-MEL-28, in the experiment on HCC 2998, in the experiment on MCF7, with OVCAR-3 and in the experiment on ACHN was > 100 µM (inactive) in each case. Besides, the GI50 in the experiment with HL-60, in the experiment with UACC-62, in the experiment with T47D, in the experiment on IGROV-1, in the experiment on KM12 and in the experiment with SK-OV-3 was > 100 µM (inactive) throughout. Further, the GI50 was > 100 µM (inactive) in the experiment with PC-3; 93.1 µM (inactive) in the experiment on OVCAR-4; > 100 µM (inactive) in the experiment with SK-MEL-5; > 100 µM (inactive) in the experiment with RXF 393; 49.1 µM (inactive) in the experiment with SF-539; over 100 µM in the experiment with HCT-15. For the same compound, the GI50 with TK-10 was > 100 µM (inactive).
